The values that follow come from patent US20070292512A1, “Solid Oral Dosage Form Containing an Enhancer” (priority 2006, published 2007).

Entries after “also recorded” stand apart in the source; their conditions may differ.

Data set [1] can be described thus: Closed loop rat model, intraduodenal TRH with enhancer, serum TRH. It is filed as in vivo, Male Wistar rats. Particulars: intraduodenal bolus 500 or 1000 μg TRH with 35 mg enhancer. The procedure:
Male Wistar rats (weight range 250 g-350 g) were anaesthetized with ketamine hydrochloride/acepromazine. […] All intraduodenal dose volumes (for samples and control) were 1 ml/kg. The proximal end of the segment was ligated, and the loop was sprayed with isotonic saline (37° C.) to provide moisture and then replaced in the abdominal cavity avoiding distension. The incision was closed with surgical clips. A group of animals were administered TRH in PBS (100 μg in 0.2 ml) by subcutaneous injection as a reference.

In the next data set the target is HDAC1 (Homo sapiens, UniProt Q13547). Particulars: range stated for each enzyme; cited from earlier work.
The nature of the next data set: in vivo. Details: species or system beagle dogs. The note with it: beagle, dog. The procedure:
The study was a single dose crossover study using from 2 to 5 dogs. Fasted animals were dosed weekly with an intravenous dose (reference) or one of three experimental romidepsin formulations administered directly into the duodenum via a surgically implanted cannula. In all cases the administered dose was 0.1 mg/kg body weight. Blood samples were obtained at selected time intervals post dosing and plasma was shipped to Japan Clinical Laboratories (JCL) for romidepsin analyses. Upon receipt of bioanalytical data from JCL, the individual animal plasma data were loaded into an Excel spreadsheet (Microsoft® Office Excel 2003) and the following pharmacokinetic parameters were calculated from the concentration-time data for each subject: Cmax, Tmax, T1/2, AUC(0-t) and % Bioavailability (% F). Pharmacokinetic parameters were calculated using macros written for Excel (Usansky et al., PK Functions for Microsoft Excel (1999) available at: www.boomer.org/[…].doc).

The conditions of data set [2]: cited from earlier work.
The next data set addresses HDAC4 (Homo sapiens, UniProt P56524). The note with it: cited from earlier work.
In data set [3] the test system is human tumor xenografts and murine tumors. The note with it: human tumor xenografts and murine tumors in mouse models; cited from earlier work. A general note: A xenograft is tissue or cells of one species grown in another, often human tumour cells in immunodeficient mice.
In another data set the test system is HDAC6. Particulars: cited from earlier work.
The conditions of data set [4]: dog, in vivo. The procedure: Beagle dogs (10-15 Kg) were sedated with medetomidine (80 μg/kg) and an endoscope was inserted via the mouth, esophagus, and stomach into the duodenum. The test solutions (10 ml) comprising leuprolide acetate (Mallinckrodt Inc, St. Louis, Mo.) with or without enhancer reconstituted in deionized water were administered intraduodenally via the endoscope. Following removal of the endoscope, sedation was reversed using atipamezole (400 μg/kg). The parenteral reference solutions comprising 1 mg Leuprolide reconstituted in 0.5 ml sterile water were administered intravenously and subcutaneously respectively.

Data set [5] concerns Caco-2 monolayers. Description: TEER in Caco-2 monolayers. It is filed as cell-based. Particulars: sodium salts at concentrations of Table 1, with 3H-TRH, over 2 hours. The procedure: (§1) Cell Culture: Caco-2 cells were cultured in Dulbecco's Modified Eagles Medium (DMEM) 4.5 g/L glucose supplemented with 1% (v/v) non-essential amino acids; 10% fetal calf serum and 1% penicillin/streptomycin. […] The cells were grown and expanded in standard tissue culture flasks and were passaged once they attained 100% confluence. The Caco-2 cells were then seeded on polycarbonate filter inserts (Costar; 12 mm diameter, 0.4 μm pore size) at a density of 5×10^5 cells/cm^2 and incubated in six well culture plates with a medium change every second day. Confluent monolayers between day 20 and day 30 seeding on filters and at passages 30-40 were used throughout these studies.
(§2) The transport experiments were performed in Hank's Balanced Salt Solution (HBSS) containing 25 mM N-[2-hydroxyethyl]-piperazine-N′-[2-ethanesulfonic acid] (HEPES) buffer, pH 7.4 at 37° C. Due to variations in solubilities, various concentrations of the different MCFA sodium salts and various apical buffers were used as shown in Table 1. In all cases the basolateral chamber contained regular HBSS+HEPES.
(§3) After removing the cell culture medium, the monolayers were placed in wells containing pre-warmed HBSS (37° C.); 1 ml apically and 2 ml basolaterally. Monolayers were incubated at 37° C. for 30 minutes. Then at time zero, apical HBSS was replaced with the relevant apical test solution containing the radio-labeled compounds with and without the enhancer compound. […] The plates were placed on an orbital shaker in an incubator (37° C.). […] At each 30-minute interval, each insert was transferred to a new well containing 2 ml fresh pre-warmed HBSS. […] Mean values for ^3H-TRH concentrations were calculated for the apical and basolateral solutions at each time point.

The subject of data set [6] is Caco-2 monolayers. The data set is described as follows: 3H-TRH transepithelial transport (Papp) in Caco-2 monolayers. The data set is classed as in vitro ADME. The note with it: sodium salts at concentrations of Table 1. On the procedure: as §1, §2, §3
In general terms: Passage across Caco-2 layers is used to estimate intestinal permeability.

Data set [7] relates to anti-factor Xa activity. The data set is described as follows: Dog study of oral heparin tablets, anti-factor Xa. The data set is classed as in vivo. The note with it: IR formulations, equivalent dose of heparin, dogs. On the procedure: Tablets from batches 3, 7 and 15 in Tables 5 and 6 above were dosed orally to groups of five dogs in a single dose crossover study. […] Blood samples for anti-factor Xa analysis were collected from the jugular vein at various time points.

For data set [8], the system named is anti-factor Xa activity. Description: Closed-loop rat segment, intraileal USP heparin, anti-factor Xa response. Particulars: USP heparin 1000 iu. It is filed as in vivo.
Data set [9] in a line: Closed-loop rat segment, intraileal USP heparin, APTT response. Particulars: USP heparin 1000 iu intraileal, sodium caprate 10 and 35 mg. It is filed as in vivo. From the text: APTT measurements were taken at various time points.
The test system of another data set is HDAC. Particulars: compared to romidepsin; cited from earlier work.

As a reminder, the bioavailability is dose-corrected exposure relative to a reference, in per cent. Read a low bioavailability as poor availability.

HDAC4, sequence (P56524 whole entry, species assumed): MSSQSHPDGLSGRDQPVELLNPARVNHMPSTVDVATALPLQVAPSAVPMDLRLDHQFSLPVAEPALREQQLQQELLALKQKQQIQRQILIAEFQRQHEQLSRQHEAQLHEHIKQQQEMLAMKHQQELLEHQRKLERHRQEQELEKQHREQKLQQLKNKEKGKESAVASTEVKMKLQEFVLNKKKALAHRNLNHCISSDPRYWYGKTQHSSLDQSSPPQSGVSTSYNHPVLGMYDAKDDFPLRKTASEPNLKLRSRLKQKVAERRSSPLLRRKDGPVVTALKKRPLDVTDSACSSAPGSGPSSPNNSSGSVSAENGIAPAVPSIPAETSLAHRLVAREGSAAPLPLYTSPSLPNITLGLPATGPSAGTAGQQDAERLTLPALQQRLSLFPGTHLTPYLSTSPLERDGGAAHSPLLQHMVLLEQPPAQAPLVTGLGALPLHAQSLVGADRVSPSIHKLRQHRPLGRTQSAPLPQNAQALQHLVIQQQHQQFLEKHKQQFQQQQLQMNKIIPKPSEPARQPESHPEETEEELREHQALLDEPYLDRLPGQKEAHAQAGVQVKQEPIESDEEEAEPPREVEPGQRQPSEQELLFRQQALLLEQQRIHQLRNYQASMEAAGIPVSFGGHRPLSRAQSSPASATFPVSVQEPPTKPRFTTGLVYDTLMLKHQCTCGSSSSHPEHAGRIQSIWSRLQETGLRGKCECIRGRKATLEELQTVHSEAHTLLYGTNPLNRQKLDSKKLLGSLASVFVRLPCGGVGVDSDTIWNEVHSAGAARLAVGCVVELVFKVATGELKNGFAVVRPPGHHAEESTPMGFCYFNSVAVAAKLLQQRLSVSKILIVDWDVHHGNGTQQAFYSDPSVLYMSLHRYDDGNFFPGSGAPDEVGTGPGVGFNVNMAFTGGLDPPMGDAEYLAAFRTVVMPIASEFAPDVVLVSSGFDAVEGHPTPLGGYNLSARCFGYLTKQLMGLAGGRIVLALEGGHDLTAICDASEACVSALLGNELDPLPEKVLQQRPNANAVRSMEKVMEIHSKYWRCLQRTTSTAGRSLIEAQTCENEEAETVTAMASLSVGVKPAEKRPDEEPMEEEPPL
HDAC1, sequence (Q13547 whole entry): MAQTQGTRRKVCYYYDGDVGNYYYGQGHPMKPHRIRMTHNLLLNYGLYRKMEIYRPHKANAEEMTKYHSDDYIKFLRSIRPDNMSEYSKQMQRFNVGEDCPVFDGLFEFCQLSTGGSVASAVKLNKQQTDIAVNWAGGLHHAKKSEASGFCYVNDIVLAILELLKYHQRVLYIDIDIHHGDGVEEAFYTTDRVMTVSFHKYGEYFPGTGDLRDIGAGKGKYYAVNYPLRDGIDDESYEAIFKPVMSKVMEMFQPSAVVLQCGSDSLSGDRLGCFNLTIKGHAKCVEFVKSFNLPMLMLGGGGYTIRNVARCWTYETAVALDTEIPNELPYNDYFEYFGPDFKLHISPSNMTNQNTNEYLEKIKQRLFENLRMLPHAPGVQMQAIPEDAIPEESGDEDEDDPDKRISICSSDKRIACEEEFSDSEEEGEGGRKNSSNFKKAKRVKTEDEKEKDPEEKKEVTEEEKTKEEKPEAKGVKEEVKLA

For the molecule `CCCCCCCC(=O)[O-].[Na+]` [NaC8, sodium caprylate], in [1], the “serum levels of TRH over the control TRH solution” value is reported as “significantly increases the serum levels of TRH”.

`C/C=C1\NC(=O)[C@H]2CSSCC/C=C/[C@H](CC(=O)N[C@H](C(C)C)C(=O)N2)OC(=O)[C@H](C(C)C)NC1=O` [romidepsin, (1S,4S,10S,16E,21R)-7-[(2Z)-ethylidene]-4,2,1-diisopropyl-2-oxa-12,13-dithia-5,8,20,23-tetraazabicyclo[8.7.6]tricos-16-ene-3,6,9,19,22-pentanone]: the “times weaker than redFK in inhibiting HDAC1” value on HDAC1 is on record as 17-23 times. The molecule further gave a bioavailability in “in vivo” of at most 28%. Further, the “stability in medium and serum” value in data set [2] is on record as “more stable than redFK”. In addition, the “times weaker than redFK in inhibiting HDAC4” value at HDAC4 (range stated for each enzyme) is 17-23 times. Besides, in data set [3], the “in vivo antitumor activity” value is listed as “in vivo antitumor activity”. Further, in the data set on HDAC6 (range stated for each enzyme), the “times weaker than redFK in inhibiting HDAC6” value is on record as 17-23 times.

As for `CCNC(=O)[C@@H]1CCCN1C(=O)[C@H](CCCNC(=N)N)NC(=O)[C@H](CC(C)C)NC(=O)[C@@H](CC(C)C)NC(=O)[C@H](Cc1ccc(O)cc1)NC(=O)[C@H](CO)NC(=O)[C@H](Cc1c[nH]c2ccccc12)NC(=O)[C@H](Cc1c[nH]cn1)NC(=O)[C@@H]1CCC(=O)N1` [leuprolide, leuprolide acetate], in [4], the “systemic delivery of leuprolide on coadministration with enhancer” value is reported as “considerable enhancer dose dependent enhancement” and the “systemic delivery of leuprolide without enhancer” value is reported as “negligible”.

For `CCCCCCCCCC(=O)[O-].[Na+]` [NaC10, sodium caprate], the “serum levels of TRH over the control TRH solution” value in data set [1] is reported as “significantly increases the serum levels of TRH”. In the data set on Caco-2 monolayers [5], the “effect on TEER compared to the control” value is listed as “minimal reduction in TEER”. The “Papp for 3H-TRH compared to the control” value in the data set on Caco-2 monolayers [6] was “considerable increases”. Besides, the “anti-factor Xa response, NaC10 versus NaC8 enhancer” value in the data set on anti-factor Xa activity [7] was “larger anti-factor Xa response”. Further, the “anti-factor Xa activity relative to control heparin solution” value in the data set with anti-factor Xa activity [8] (enhancer 10 mg dose) and with anti-factor Xa activity [8] (enhancer 35 mg dose) was “significant increase in anti-factor Xa activity” in each case. Besides, the “heparin absorption by APTT response vs control heparin solution” value in data set [9] is on record as “significant increase in absorption”.

Turning to `CCCCCCCCCCCCCCCCCC(=O)[O-].[Na+]` [Batch C18], in the data set with Caco-2 monolayers [5], the “effect on TEER compared to the control” value is listed as “minimal reduction in TEER”.

In the case of `CCCCCCCCCCCC(=O)[O-].[Na+]` [Batch C12, sodium laurate], the “effect on TEER compared to the control” value in the data set on Caco-2 monolayers [5] was “some cell damage (reduction in TEER)”. The “Papp for 3H-TRH compared to the control” value in the data set with Caco-2 monolayers [6] is reported as “considerable increases”.

As for `C/C=C1\NC(=O)[C@@H](CS)NC(=O)[C@@H](C(C)C)NC(=O)C[C@@H](/C=C/CCS)OC(=O)[C@H](C(C)C)NC1=O` [redFK], in [2], the “stability in medium and serum” value is “rapid inactivation”. Moreover, the “inhibitory effect against HDAC4” value at HDAC4 (low nanomolar concentrations) is “relatively weak”. The “inhibiting in vivo HDAC activity” value with HDAC was “less active compared to romidepsin”. For the same molecule, the “inhibitory effect against HDAC6” value in the data set on HDAC6 (low nanomolar concentrations) is listed as “relatively weak; also recorded: almost insensitive”.

As for `CCCCCCCCCCCCCC(=O)[O-].[Na+]` [Batch C14], the “effect on TEER compared to the control” value in the data set on Caco-2 monolayers [5] is “minimal reduction in TEER”. In the data set on Caco-2 monolayers [6], the “Papp for 3H-TRH compared to the control” value was “considerable increases”.
